Assay [1] deals with malaria mimetic UK39 (serum IgG against it). In words: UK39 ELISA of mouse sera after immunization with UK39 IRIV with or without melittin. The assay is classed as in vivo. The following applies: Balb/c mice, UK39 IRIV (20 μg UK39) + 10 μg melittin; sera day 21 and 35, IgG ELISA read at 492 nm. On the procedure: Balb/c mice were immunized with 100 μl PBS containing: the malaria mimetic UK39 (20 μg UK39) in combination with an IRIV with or without 10 μg Melittin. For the UK39 ELISA, ELISA plates were coated over night at 4° C. with 10 μg/ml UK39 in PBS. After washing with PBS 0.05% Tween20 plates were blocked with 5% dry milk in PBS 2 h at 37° C. Mouse sera from day 21 and 35 were initially diluted 1:10 and titrated in serial 1:2 dilutions in PBS 0.05% Tween20 0.5% dry milk. After 2 h incubation at 37° C. plates were washed and incubated with goat […]-mouse IgG HRP Ab (BD Bioscience) (1:5000 in PBS 0.05% Tween20 0.5% dry milk) 1 h 37° C. Plates were developed with OPD-substrate (OPD (O-Phenylenediamine tablets, Fluka, Switzerland, 1 tablet in 50 ml citrate buffer+50 μl H2O2) for 30 min. The reaction was stopped with 1 M H2SO4 and plates were read at 492 nm.
UK39 IRIV: 4 mg UK39, 4 mg influenza A/Singapore, 32 mg phosphatidylcholine (PC) and 8 mg phosphatidylethanolamine (PE) were resuspended in 4 ml 100 mM OEG in PBS (OEG-PBS), sonicated for 1 min and centrifugated for 1 h at 100′000×g at 20° C. […]
UK39 ELISA: ELISA plates were coated over night at 4° C. with 10 μg/ml UK39 in PBS. […] Plates were developed with OPD-substrate (OPD (O-Phenylendiamine tablets, Fluka, Switzerland, 1 tablet in 50 ml citrate buffer+50 μl H2O2) for 30 min. The reaction was stopped with 1 M H2SO4 and plates were read at 492 nm.

Assay [2] deals with IFNγ+ CD8+ T cells specific for T4 peptide VVYDFLKCM (Kb/T404-412). In words: Splenic T4-specific IFNγ+ CD8+ T cell frequency after i.m. vaccination with T4/melittin-derived fusion peptide with or without ODN. The assay is classed as in vivo, C57BL/6 (B6) mice. As to conditions: B6 mice, 35 nmol i.m.; for dependence of adjuvant activity on CpG motifs in the ODN: NSS+ ODN-1982 (no CpG) versus ISS+ ODN-1826 (CpG). From the text:
The adjuvant activity of the melittin-derived peptide thus acts synergistically even with oligodeoxynucleotides that lack any immunostimulatory sequences. C57BL/6 (B6) mice were either not immunized (group 1) or vaccinated i.m. with 35 nmol of peptides alone (group 2) or mixed with oligodeoxynucleotide (group 3), not containing (A; NSS^+ ODN-1982; SEQ ID NO: 7), or containing (B; ISS^+ ODN-1826; SEQ ID NO: 6) CpG motifs. Spleen cells obtained from immune mice 12 days post vaccination were restimulated ex vivo with the T4 peptide VVYDFLKCM (K^b/T404-412, SEQ ID NO: 4). Mean number of specific IFNγ^+ CD8^+ T cells/10^5 CD8^+ T cells±SD (of 6 mice per group) averaged from two independent experiments are shown.
Fusion of a sample antigen (here, T4 peptide) to the melittin-derived peptide and binding ODN to them creates potent immunogens for CD8^+ T cells. A sample target antigen, the SV40-derived T4 peptide T404-417 VVYDFLKCMVYNIP (SEQ ID NO: 5) was fused to a duplicated amino acid sequence derived from melittin (KRKRQKRKRQ, SEQ ID NO: 2). B6 mice were vaccinated i.m. with 35 nmol of these peptides alone (group 2), or mixed with ODN (group 3), not containing (A; NSS+ ODN-1982), or containing (B; ISS+ ODN-1826) CpG motifs (FIG. 1). Spleen cells obtained from immune mice 12 days post-vaccination were restimulated ex vivo with the T4 peptide VVYDFLKCM (SEQ ID NO: 4) (Kb/T404-412). Mean numbers of specific IFNγ^+ CD8^+ T cells/10^5 CD8^+ T cells±SD (of 6 mice per group) averaged from two independent experiments are shown.
C57BL/6JBom (B6) mice (H-2b) were bred and kept under standard pathogen-free conditions in the animal colony of Ulm University (Ulm, Germany). Male/female mice were used at 12-16 wks of age. The preparation of cationic peptide/ODN vaccines CpG containing ODN-1826 ([…]; ISS-1826, SEQ ID NO: 6) and its control ODN-1982 ([…]; NSS-1982, SEQ ID NO: 7) were obtained from MWG (Ebersberg, Germany). ODN were synthesized with phosphorothioate backbones. […] The number of CD8^+ IFNγ^+ T cells per 10^5 splenic CD8^+ T cells was determined by FCM analyses.

In assay [3] the test system is OVA257-64 peptide specific IFNγ+ CD8+ T cells. On the set-up: species or system C57Bl/6 mice. As to conditions: mouse, in vivo.

Entries after “also recorded” stand apart in the source; their conditions may differ.

For the molecule `CC[C@H](C)[C@H](NC(=O)CN)C(=O)NCC(=O)N[C@@H](C)C(=O)N[C@H](C(=O)N[C@@H](CC(C)C)C(=O)N[C@@H](CCCCN)C(=O)N[C@H](C(=O)N[C@@H](CC(C)C)C(=O)N[C@H](C(=O)N[C@H](C(=O)NCC(=O)N[C@@H](CC(C)C)C(=O)N1CCC[C@H]1C(=O)N[C@@H](C)C(=O)N[C@@H](CC(C)C)C(=O)N[C@H](C(=O)N[C@@H](CO)C(=O)N[C@@H](Cc1c[nH]c2ccccc12)C(=O)N[C@H](C(=O)N[C@@H](CCCCN)C(=O)N[C@@H](CCCNC(=N)N)C(=O)N[C@@H](CCCCN)C(=O)N[C@@H](CCCNC(=N)N)C(=O)N[C@@H](CCC(N)=O)C(=O)N[C@@H](CCC(N)=O)C(N)=O)[C@@H](C)CC)[C@@H](C)CC)[C@@H](C)O)[C@@H](C)O)C(C)C)C(C)C` [melittin], the “humoral immune response (B cell immunity) against antigen UK39 coupled to IRIV” value in assay [1] was “adjuvant effect; also recorded: further enhanced”.
Consider “KRKRQKRKRQ (Synthetic peptide derived from Apis mellifera)”, for which the “adjuvant activity (specific IFNγ+ CD8+ T cells/10^5 CD8+ T cells)” value in assay [2] (combined with target antigen T4 and oligodeoxynucleotide, spleen cells 12 days post vaccination restimulated ex vivo with T4 peptide) is “significant adjuvant activity”. The “dependence of adjuvant activity on CpG motifs in the ODN” value is “not dependent on the presence of CpG sequences in the ODN” in assay [2] and “does not depend on the presence of CpG motifs” in assay [2] (listed as KRKRQKRKRQ).
Turning to CKRKRQKRKRQSIINFEKL [Cys-Mel-OVA257-64], in assay [3], the “adjuvant effect in combination with IRIVs (peptide specific IFNγ+ CD8+ T cells)” value is recorded as “further potentiated by its combination with IRIVs; also recorded: further synergizes with IRIVs”.

For the origin of these results see patent US7538083B2, “Compositions and methods for the potentiation of immune responses against target antigens” (Intercell AG, priority 2003, dated 2009).
